These results are taken from US11332498B2, “Ligands for integrin αVβ8, synthesis and uses thereof” (Technische Universitat Munchen, priority 2017, dated 2022).

Assay [1] deals with αvβ5 (Homo sapiens, UniProt P06756+P18084). Description: solid-phase integrin binding assay, αvβ5. The method, then: (§1) The activity and selectivity of integrin ligands were determined by a solid-phase binding assay according to the previously reported protocols using coated extracellular matrix proteins and soluble integrins: Fibronectin (Fn) for α5β1, latent activating protein (LAP) for αvβ6 and αvβ8, Vitronectin (Vn) for αvβ3 and αvβ5, Fibrinogen (Fbg) for αIIbβ3.
αvβ5, sequence (P06756 31-889 limits assumed): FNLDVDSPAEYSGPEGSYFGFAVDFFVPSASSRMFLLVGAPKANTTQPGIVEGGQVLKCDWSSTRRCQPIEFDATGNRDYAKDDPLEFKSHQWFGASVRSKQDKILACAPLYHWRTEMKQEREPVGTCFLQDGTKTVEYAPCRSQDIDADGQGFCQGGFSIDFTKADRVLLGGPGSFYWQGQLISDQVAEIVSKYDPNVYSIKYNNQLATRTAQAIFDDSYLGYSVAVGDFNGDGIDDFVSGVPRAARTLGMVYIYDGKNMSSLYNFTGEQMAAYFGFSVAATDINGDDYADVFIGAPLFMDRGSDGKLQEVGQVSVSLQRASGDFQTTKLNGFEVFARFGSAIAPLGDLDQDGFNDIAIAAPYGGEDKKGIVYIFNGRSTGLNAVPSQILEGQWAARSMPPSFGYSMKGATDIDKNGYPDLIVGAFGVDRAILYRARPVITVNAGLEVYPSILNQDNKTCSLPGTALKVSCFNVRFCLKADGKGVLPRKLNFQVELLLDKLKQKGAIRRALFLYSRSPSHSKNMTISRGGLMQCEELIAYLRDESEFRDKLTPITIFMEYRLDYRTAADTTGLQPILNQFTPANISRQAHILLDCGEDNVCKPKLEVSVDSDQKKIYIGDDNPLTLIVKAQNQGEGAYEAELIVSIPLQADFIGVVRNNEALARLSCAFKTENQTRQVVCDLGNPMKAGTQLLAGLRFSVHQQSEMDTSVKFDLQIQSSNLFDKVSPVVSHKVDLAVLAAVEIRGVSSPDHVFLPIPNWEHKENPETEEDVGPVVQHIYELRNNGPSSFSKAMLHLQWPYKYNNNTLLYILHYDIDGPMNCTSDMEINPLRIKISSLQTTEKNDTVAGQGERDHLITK
αvβ5, sequence (P06756 891-1048 partner limits assumed): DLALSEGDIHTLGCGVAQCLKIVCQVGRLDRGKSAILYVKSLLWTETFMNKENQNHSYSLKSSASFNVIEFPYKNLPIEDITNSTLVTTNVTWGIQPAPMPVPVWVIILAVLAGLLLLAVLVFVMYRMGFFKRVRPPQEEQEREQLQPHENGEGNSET
αvβ5, sequence (P18084 24-799): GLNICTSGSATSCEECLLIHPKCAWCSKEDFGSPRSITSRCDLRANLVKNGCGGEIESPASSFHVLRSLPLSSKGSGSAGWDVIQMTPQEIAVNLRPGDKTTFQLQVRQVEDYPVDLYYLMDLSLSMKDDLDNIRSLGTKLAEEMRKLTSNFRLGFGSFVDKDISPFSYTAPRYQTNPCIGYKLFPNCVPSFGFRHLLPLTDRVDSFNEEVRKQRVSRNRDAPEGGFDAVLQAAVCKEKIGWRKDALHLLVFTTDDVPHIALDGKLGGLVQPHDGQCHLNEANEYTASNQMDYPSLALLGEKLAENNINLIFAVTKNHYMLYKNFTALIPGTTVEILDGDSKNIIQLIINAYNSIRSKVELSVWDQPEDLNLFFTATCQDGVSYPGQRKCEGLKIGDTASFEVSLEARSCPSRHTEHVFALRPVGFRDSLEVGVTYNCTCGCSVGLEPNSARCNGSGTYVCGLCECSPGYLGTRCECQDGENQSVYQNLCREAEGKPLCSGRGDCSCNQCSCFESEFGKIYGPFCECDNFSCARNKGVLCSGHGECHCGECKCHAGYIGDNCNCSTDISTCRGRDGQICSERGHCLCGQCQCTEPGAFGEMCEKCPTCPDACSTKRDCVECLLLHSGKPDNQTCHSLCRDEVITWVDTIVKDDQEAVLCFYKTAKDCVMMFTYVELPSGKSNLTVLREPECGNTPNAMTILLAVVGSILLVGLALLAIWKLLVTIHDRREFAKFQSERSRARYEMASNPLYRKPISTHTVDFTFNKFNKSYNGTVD

Assay [2] concerns the target α5β1 (Homo sapiens, UniProt P05556+P08648). Description: solid-phase integrin binding assay, α5β1. The method, then:
as §1

The target in assay [3] is αvβ6 (Homo sapiens, UniProt P06756+P18564). Description: solid-phase integrin binding assay, αvβ6. The method, then:
as §1

Assay [4] has as its target αvβ8 (Homo sapiens, UniProt P06756+P26012). Description: solid-phase integrin binding assay, αvβ8. To be noted: for IC50: Table 1, coated LAP, soluble integrin, read-out: αvβ8 [nM] (integrin binding affinity).
Assay [5] has as its target αIIbβ3 (Homo sapiens, UniProt P05106+P08514). Description: solid-phase integrin binding assay, αIIbβ3. To be noted: Table 2; coated Fibrinogen. Here is the method:
as §1

The target in assay [6] is αvβ3 (Homo sapiens, UniProt P05106+P06756). Description: solid-phase integrin binding assay, αvβ3. To be noted: Table 2; coated Vitronectin. The method, then:
as §1

[7] abbreviates: Table 3, BDPFL-labelled compounds and comparatives.
Setting [8] is: Table 1, coated LAP, soluble integrin, read-out: αvβ6 [nM] (integrin binding affinity).

Like-named read-outs stand apart in the source and are kept apart here. Where a SMILES comes first, the peptide text is derived from it. Bridges are numbered along the chain shown (N, C = ends). Roman numbers before positions name the chains, in order. Side-chain parts run from the residue outwards. [ ]: non-standard residue; d: D form. The star is where a group is joined. BODIPY(FL) = CC1=CC(C)=[N+]2C1=Cc1ccc(CCC(=O)*)n1[B-]2(F)F; NMeK = CN[C@@H](CCCCN)C(=O)O; Ahx = NCCCCCC(=O)O Where only a bound is given, the exact number is not on record here.

αvβ8, sequence (P06756 31-889 limits assumed): as the sequence (P06756 31-889 limits assumed) above
αvβ8, sequence (P06756 891-992 partner limits assumed): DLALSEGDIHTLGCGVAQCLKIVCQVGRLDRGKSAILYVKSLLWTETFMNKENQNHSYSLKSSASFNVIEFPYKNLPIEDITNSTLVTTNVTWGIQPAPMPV
αvβ8, sequence (P26012 43-684 limits assumed): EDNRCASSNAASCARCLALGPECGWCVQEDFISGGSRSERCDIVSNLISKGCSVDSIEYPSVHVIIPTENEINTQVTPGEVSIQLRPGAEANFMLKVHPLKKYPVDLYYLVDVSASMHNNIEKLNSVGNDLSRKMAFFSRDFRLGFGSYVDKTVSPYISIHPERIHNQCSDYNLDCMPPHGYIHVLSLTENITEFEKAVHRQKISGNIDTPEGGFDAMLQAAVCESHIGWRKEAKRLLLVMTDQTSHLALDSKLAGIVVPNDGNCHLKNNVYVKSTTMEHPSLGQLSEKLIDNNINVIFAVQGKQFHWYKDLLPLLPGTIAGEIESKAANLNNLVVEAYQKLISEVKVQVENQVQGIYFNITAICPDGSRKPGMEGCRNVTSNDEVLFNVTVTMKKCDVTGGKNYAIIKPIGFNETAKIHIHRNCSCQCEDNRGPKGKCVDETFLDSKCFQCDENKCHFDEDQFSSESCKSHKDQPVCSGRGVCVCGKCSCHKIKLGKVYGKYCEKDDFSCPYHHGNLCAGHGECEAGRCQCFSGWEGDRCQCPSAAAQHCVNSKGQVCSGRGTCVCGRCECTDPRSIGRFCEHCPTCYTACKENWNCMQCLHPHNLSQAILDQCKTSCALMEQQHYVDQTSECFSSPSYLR
αvβ6, sequence (P06756 31-889 limits assumed): as the sequence (P06756 31-889 limits assumed) above
αvβ6, sequence (P06756 891-992 partner limits assumed): as the sequence (P06756 891-992 partner limits assumed) above
αvβ6, sequence (P18564 22-707 limits assumed): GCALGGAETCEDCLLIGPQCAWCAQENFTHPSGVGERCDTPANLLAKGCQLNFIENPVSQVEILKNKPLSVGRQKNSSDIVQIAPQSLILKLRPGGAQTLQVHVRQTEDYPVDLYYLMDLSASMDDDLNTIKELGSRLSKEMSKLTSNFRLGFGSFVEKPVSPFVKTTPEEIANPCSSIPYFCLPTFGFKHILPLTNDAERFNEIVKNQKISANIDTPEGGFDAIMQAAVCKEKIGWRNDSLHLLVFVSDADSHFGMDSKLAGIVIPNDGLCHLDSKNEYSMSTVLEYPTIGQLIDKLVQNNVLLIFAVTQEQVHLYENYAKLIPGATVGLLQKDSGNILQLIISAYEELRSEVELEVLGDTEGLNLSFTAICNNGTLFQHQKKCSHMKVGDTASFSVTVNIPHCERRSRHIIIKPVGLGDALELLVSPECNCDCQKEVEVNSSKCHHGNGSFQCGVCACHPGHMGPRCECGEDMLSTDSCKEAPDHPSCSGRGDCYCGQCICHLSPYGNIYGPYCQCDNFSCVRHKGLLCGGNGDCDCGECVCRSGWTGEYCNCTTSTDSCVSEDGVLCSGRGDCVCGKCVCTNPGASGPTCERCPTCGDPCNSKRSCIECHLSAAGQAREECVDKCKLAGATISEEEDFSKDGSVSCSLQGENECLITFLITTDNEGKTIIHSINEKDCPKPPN
αvβ3, sequence (P06756 31-889 limits assumed): as the sequence (P06756 31-889 limits assumed) above
αvβ3, sequence (P06756 891-992 partner limits assumed): as the sequence (P06756 891-992 partner limits assumed) above
αvβ3, sequence (P05106 27-718 limits assumed): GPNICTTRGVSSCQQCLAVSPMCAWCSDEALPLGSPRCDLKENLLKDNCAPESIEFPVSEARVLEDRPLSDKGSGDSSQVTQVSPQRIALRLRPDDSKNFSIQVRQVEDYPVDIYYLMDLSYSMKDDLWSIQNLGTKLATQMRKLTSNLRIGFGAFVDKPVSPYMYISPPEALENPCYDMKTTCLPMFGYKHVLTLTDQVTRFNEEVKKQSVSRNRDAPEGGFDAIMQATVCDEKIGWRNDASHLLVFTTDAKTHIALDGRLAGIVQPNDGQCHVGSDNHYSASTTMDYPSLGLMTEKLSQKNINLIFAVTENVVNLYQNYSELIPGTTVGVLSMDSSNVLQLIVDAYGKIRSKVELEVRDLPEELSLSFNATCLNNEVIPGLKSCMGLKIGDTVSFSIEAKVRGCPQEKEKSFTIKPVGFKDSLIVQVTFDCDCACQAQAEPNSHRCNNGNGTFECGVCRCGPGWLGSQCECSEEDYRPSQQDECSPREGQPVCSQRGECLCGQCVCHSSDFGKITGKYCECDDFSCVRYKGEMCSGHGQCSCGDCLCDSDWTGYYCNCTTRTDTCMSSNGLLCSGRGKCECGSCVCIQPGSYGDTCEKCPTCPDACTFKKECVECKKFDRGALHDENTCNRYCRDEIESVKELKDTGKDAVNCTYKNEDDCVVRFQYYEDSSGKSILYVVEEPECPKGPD

For `Cc1cc(C)n2c1C=C1C=CC(CCC(=O)NCCCC[C@H]3C(=O)NCC(=O)N[C@@H](CC(C)C)C(=O)N[C@@H](CCCNC(=N)N)C(=O)NCC(=O)N[C@@H](CC(=O)O)C(=O)N[C@@H](CC(C)C)C(=O)N4CCC[C@@H]4C(=O)N3C)=[N+]1[B-]2(F)F` [Compound 9a, 9-BDPFL] (cyclo(RGDL[dP][NMeK](BODIPY(FL))GL)), the IC50 in assay [1] (setting [7]) was over 10000 nM.
Consider `CC1=CC(C)=[N+]2C1=Cc1ccc(CCC(=O)NCCCCCC(=O)NCCCC[C@H]3C(=O)NCC(=O)N[C@@H](CC(C)C)C(=O)N[C@@H](CCCNC(=N)N)C(=O)NCC(=O)N[C@@H](CC(=O)O)C(=O)N[C@@H](CC(C)C)C(=O)N4CCC[C@@H]4C(=O)N3C)n1[B-]2(F)F` [Compound 9b, 9-Ahx-BDPFL] (cyclo(RGDL[dP][NMeK]([Ahx-BODIPY(FL)])GL)), for which the figures for the IC50 in assay [1] (setting [7]) and in assay [2] (setting [7]) were over 10000 nM and over 1000 nM, respectively.
With `Cc1cc(C)n2c1C=C1C=CC(CCC(=O)NCC(=O)N3CCC[C@H]3C(=O)N3CCC[C@H]3C(=O)N3CCC[C@H]3C(=O)NCC(=O)NCCCC[C@H]3C(=O)NCC(=O)N[C@@H](CC(C)C)C(=O)N[C@@H](CCCNC(=N)N)C(=O)NCC(=O)N[C@@H](CC(=O)O)C(=O)N[C@@H](CC(C)C)C(=O)N4CCC[C@@H]4C(=O)N3C)=[N+]1[B-]2(F)F` [Compound 9e, 9-G(P)3G-BDPFL] (I: cyclo(RGDL[dP][NMeK]GL) / II: {BODIPY(FL)}-GPPPG; amide I:6-II:C), the IC50 in assay [1] (setting [7]) is over 10000 nM; in assay [3] (Table 3, BDPFL-labelled compounds and comparatives, read-out: αvβ6, IC50), 247 nM.
Compound `Cc1cc(C)n2c1C=C1C=CC(CCC(=O)NCC(=O)N3CCC[C@H]3C(=O)N3CCC[C@H]3C(=O)N3CCC[C@H]3C(=O)N3CCC[C@H]3C(=O)N3CCC[C@H]3C(=O)N3CCC[C@H]3C(=O)NCC(=O)NCCCC[C@H]3C(=O)NCC(=O)N[C@@H](CC(C)C)C(=O)N[C@@H](CCCNC(=N)N)C(=O)NCC(=O)N[C@@H](CC(=O)O)C(=O)N[C@@H](CC(C)C)C(=O)N4CCC[C@@H]4C(=O)N3C)=[N+]1[B-]2(F)F` [Compound 9f, 9-G(P)6G-BDPFL] (I: {BODIPY(FL)}-GPPPPPPG / II: cyclo(RGDL[dP][NMeK]GL); amide I:C-II:6) had an IC50 in assay [1] (setting [7]) of over 10000 nM. For the same compound, the “binding activity to αvβ8 (in words)” value in assay [4] (comparison with compound 9, comment on Table 3) is given as “reduced binding activity”.
`CC(C)C[C@@H]1NC(=O)CNC(=O)[C@@H]2CCCN2C(=O)[C@H]2CCCN2C(=O)[C@H](CC(C)C)NC(=O)[C@H](CC(=O)O)NC(=O)CNC(=O)[C@H](CCCNC(=N)N)NC1=O` [compound 2, Cyclo-(Arg-Gly-Asp-Leu-D-Pro-Pro-Gly-Leu)] (cyclo(RGDL[dP]PGL)): the values for the IC50 in assay [4] and in assay [3] (setting [8]) were 0.93 nM and 210 nM, respectively.
For `CC(C)C[C@@H]1NC(=O)CNC(=O)[C@H](CCCCN)N(C)C(=O)[C@H]2CCCN2C(=O)[C@H](CC(C)C)NC(=O)[C@H](CC(=O)O)NC(=O)CNC(=O)[C@H](CCCNC(=N)N)NC1=O` [compound 8, Cyclo-(Arg-Gly-Asp-Leu-D-Pro-(N-Me-Lys)-Gly-Leu)] (cyclo(RGDL[dP][NMeK]GL)), the IC50 in assay [1] (Table 2, coated Vitronectin) is over 1000 nM; in assay [5], over 1000 nM; in assay [2] (Table 2, coated Fibronectin), over 1000 nM; in assay [4], 6.5 nM; in assay [3] (setting [8]) it was 201 nM; in assay [6], over 1000 nM.
With `CC(=O)NCCCC[C@H]1C(=O)NCC(=O)N[C@@H](CC(C)C)C(=O)N[C@@H](CCCNC(=N)N)C(=O)NCC(=O)N[C@@H](CC(=O)O)C(=O)N[C@@H](CC(C)C)C(=O)N2CCC[C@@H]2C(=O)N1C` [compound 9, Cyclo-(Arg-Gly-Asp-Leu-D-Pro-(N-Me-Lys(Ac))-Gly-Leu)] (cyclo(RGDL[dP][NMeK](Ac)GL)), the IC50 in assay [4] is 6 nM; in assay [3] (setting [8]), 201 nM.
